Test results: patent publication US20040110138A1, “Method for the detection of multiple genetic targets” (University of Ottawa, priority 2002, published 2004)

System: coagulase-negative Staphylococci (CoNS)
Assay: Oxacillin MIC by agar dilution (NCCLS M100-S10, M7), isolate retest
Type: cell-based
Method: Blood culture bottles that were flagged as positive by the BacT/Alert system (Organon Teknika Corp., Durham N.C.) were processed by the Microbiology laboratory using standard microbiologic methods (Kloos & Bannerman, 1999). S. aureus was identified by a positive tube coagulase test. Oxacillin susceptibility for S. aureus was determined using the oxacillin salt agar screen method (NCCLS M100-S10, M7) and for coagulase-negative Staphylococci (CoNS) using disk diffusion testing (NCCLS M100-S10, M2).
In cases where there were discrepancies between the mecA PCR result of the blood culture bottle contents and the initial susceptibility result for the isolate recovered from the bottle, the isolate was re-tested for the mecA gene, oxacillin MIC was determined by agar dilution (NCCLS M100-S10, M7) and disk diffusion testing for oxacillin was repeated (NCCLS M100-S10, M2).

Cc1onc(-c2ccccc2)c1C(=O)N[C@@H]1C(=O)N2[C@@H]1SC(C)(C)[C@@H]2C(=O)O [Oxacillin]
Oxacillin MIC (isolate from bottle 8, initially reported as MS-CoNS): 2.0
Oxacillin MIC (isolate from bottle 10, initially reported as MR-CoNS): 0.5
